Experimental data as given in patent US4559402A, “Pyrazolopyridines and tetrahydro pyrazolopyridines” (Kyorin Seiyaki Kabushiki Kaisha, priority 1983, dated 1985).
Where two headings read alike, the source gives them in different places.

Columns and labels:
[1] = system: Rabbit platelet aggregation induced by arachidonic acid; assay: Effects on rabbit platelet aggregation in vitro (PRP), arachidonic acid-induced; assay type: cell-based; settings: Oryctolagus cuniculus, 0.05 h, arachidonic acid 10^-4 M, 3 min. preincubation, read-out: IC100 (concentration which gave maximum (100%) inhibition against platelet aggregation)
Procedure: (§1) The antiaggregant activity in vitro of the present compounds was studied in platelet rich plasma from rabbit and man.
(§2) Blood was taken from the femoral artery of rabbit with a syringe containing sodium citrate (3.8%, 1 vol. in 9 vol. of blood). The citrated blood was centrifuged at 800 rpm. The supernatants were stored at 10° C. until use as platelet rich plasma (PRP) in the subsequent experiment. Platelet aggregation was determined with aggregometer (D-P 247 E, SIENCO Ltd.). Stock solution of test compounds was made by suspending at a concentration of 10 mg/ml in 1% gum arabic solution. Further, dilution was made with 0.9% saline. PRP was preincubated for 3 min. with the test compounds, and then arachidonic acid as aggregant was added at final concentration of 10^-4 M.
(§3) IC100 -values are the concentrations which gave maximum (100%) inhibition against platelet aggregation caused by arachidonic acid.

[2] = Gastro-intestinal lesions in rats (ulcerogenic activity); parameters: species or system Male Wistar rats; settings: rat, in vivo, po
Procedure: Male Wistar rats weighing 250 to 300 g were used in this experiment. Ulcer formation under the satiety condition was studied as follows: Rats not fasted prior to experiment were administered orally with test compounds. The animals were allowed free access to diet and water for 24 hours after the drug administration until sacrificed by exsanguination. The stomach and the intestine were removed and examined for lesions.
In the other study, rats had been deprived of food and water for 24 hours before drug administration. The animals were administered orally with the compound of Example 2 and aspirin and then they had free access to water but not to diet. Twenty-four hours later, the animals were killed by the exsanguination. The stomach and the intestine were removed and observed carefully to know whether or not lesions were present.
Units for the UD50values: mg/kg, p.o. UD50 means the dose that
cause the lesions in 50% of animals.

[3] = system: human platelet aggregation, collagen-induced; assay: Effects on human platelet aggregation in vitro (PRP), collagen-induced; assay type: cell-based; settings: 0.05 h, collagen 6-8 μg/ml, read-out: concentration that completely inhibited platelet aggregation
Procedure: as §1, §2, §3
(§4) Blood samples were taken from median cubital vein of 5 healthy volunteers (male, 30 to 42 age) with plastic syringe. The citrated blood (sodium citrate 1 vol. in 9 vol. of blood) was centrifuged at 1000 rpm. The supernatant (PRP) was stored at 10° C. and used within 5 hours. Arachidonic acid (4-8×10^-4 M) and collagen (6-8 μg/ml, SIGMA, Type III) were used as aggregants. Other procedures were the same as in Experiment 1.

[4] = Acute Toxicity (LD50), rats; settings: rat, in vivo
[5] = Acute Toxicity (LD50), mice; settings: mouse, in vivo
[6] = Effect on blood viscosity (whole blood and plasma viscosities, hematocrit); assay type: in vivo, Male Wistar rats; settings: rat, 10 mg/kg p.o. twice a day for 2 days
Procedure: Male Wistar rats weighing 300-380 g were used in this experiment. Rats were administered orally 10 mg/kg twice a day of the compound of Example 2 for 2 days. One hour after the last treatment, rats were anaesthetized with pentobarbital 35 mg/kg ip, and then blood was taken from vena cava caudalis. EDTA was added at a final concentration of 2 mM.
Whole blood and plasma viscosities were measured with rotational viscometer (Contraves LS-30, shear rate 0-128.5 sec.^-1, 37° C.) and hematocrit was determined by microhematocrit centrifugation (13,000 g for 5 min.).

[7] = system: human platelet aggregation, arachidonic acid-induced; assay: Effects on human platelet aggregation in vitro (PRP), arachidonic acid-induced; assay type: cell-based
Procedure: as §1, §2, §3, §4

[8] = system: arachidonic acid-induced aggregation of platelets from rabbit; assay: Ex vivo studies on platelet aggregation (PRP from rabbit administered orally), arachidonic acid-induced; assay type: in vivo; settings: oral, blood taken one hour after administration, FIG. 1
Procedure: To know the absorbability and potency of the compound of this invention, another platelet aggregation tests were done using the PRP from rabbit which had been administered orally with the drugs.
Rabbits were administered orally with the compound of Example 2 or aspirin. One hour after the drug administration, blood was taken from the femoral artery. The methods for preparing PRP and determining platelet aggregation were the same as Experiment 1.

[9] = iv, read-out: Acute Toxicity LD50, I.V.
[10] = po, read-out: Acute Toxicity LD50, P.O.

Compound `Cc1nn2ccccc2c1C(=O)c1cccnc1` [Example 1, 2-methyl-3-nicotinoylpyrazolo[1,5-a]pyridine] has an IC100 [1] of 6 µg/mL.

For `Cc1nn2ccccc2c1C(=O)C1=CN(C(=O)Nc2ccc(Cl)cc2)CCC1` [Example 4, 2-methyl-3-[1-(p-chlorophenylcarbamoyl)-1,4,5,6-tetrahydronicotinoyl]-pyrazolo[1,5-a]pyridine], the IC100 [1] was 1 µg/mL.

For `CC(=O)Oc1ccccc1C(=O)O` [Aspirin, reference compound], the TD50 at 24 h ([2]; deprived of food and water for 24 hours before, examined 24 hours after, read-out: UD50 (dose that cause the lesions in 50% of animals), Fasting) was 25 to 50 mg/kg, the TD50 at 24 h ([2]; not fasted, 24 hours, read-out: UD50 (dose that cause the lesions in 50% of animals), Satiety) was 230 mg/kg and the IC100 [3] was 100 µg/mL. The IC100 [1] was 4 µg/mL.

With `CCOC(=O)C(C)N1C=C(C(=O)c2c(C)nn3ccccc23)CCC1` (centres unmarked) [Example 10, 3-[1-(1-ethoxycarbonylethyl)-1,4,5,6-tetrahydronicotinoyl]-2-methylpyrazolo-[1,5-a]pyridine] the IC100 [1] was 0.3 µg/mL.

Compound `Cc1nn2c(c1C(=O)C1=CNCCC1)CCCC2` [Example 3, 2-methyl-3-(1,4,5,6-tetrahydronicotinoyl)-4,5,6,7-tetrahydropyrazole[1,5-a]pyridine] has an IC100 [1] of 0.2 µg/mL.

`Cc1nn2ccccc2c1C(=O)C1=CNCCC1` [Example 2, 2-methyl-3-(1,4,5,6-tetrahydronicotinoyl)pyrazolo[1,5-a]pyridine] gave an LD50 [4, 9] greater than 100 mg/kg, an LD50 [4, 10] greater than 1000 mg/kg and an LD50 [5, 9] of 125 to 150 mg/kg. For the same compound, the LD50 [5, 10] was greater than 1000 mg/kg, the TD50 at 24 h ([2]; UD50 (dose that cause the lesions in 50% of animals), Fasting) was 300 to 500 mg/kg and the TD50 at 24 h ([2]; UD50 (dose that cause the lesions in 50% of animals), Satiety) was greater than 1000 mg/kg. The IC100 [1] was 0.03 µg/mL, the effect on hematocrit [6] was “no effects” and the “effect on plasma viscosity” value [6] was “no effects”. The “reduction of whole blood viscosity, shear rate 0.1285 sec.^-1” value [6] was 50.1%, the “reduction of whole blood viscosity, shear rate 0.514 sec.^-1” value [6] was 36.1% and the “reduction of whole blood viscosity, shear rate 6.425 sec.^-1” value [6] was 23.5%. The “reduction of whole blood viscosity, shear rate 25.7 sec.^-1” value [6] was 19.2%, the “reduction of whole blood viscosity, shear rate 128.5 sec.^-1” value [6] was 12.0% and the “Plasma Viscosity” value ([6]; 37° C.) was 1.14 ± 0.01 mPS. For the same compound, the “Whole Blood Viscosity, shear rate 0.1285 sec.^-1” value ([6]; 37° C., * p < 0.05 vs vehicle) was 24.8 ± 2.71 mPS, the “Whole Blood Viscosity, shear rate 0.514 sec.^-1” value ([6]; 37° C., * p < 0.05 vs vehicle) was 17.2 ± 1.31 mPS and the “Whole Blood Viscosity, shear rate 6.425 sec.^-1” value ([6]; 37° C., * p < 0.05 vs vehicle) was 7.31 ± 0.36 mPS. For the same compound, the “Whole Blood Viscosity, shear rate 25.7 sec.^-1” value ([6]; 37° C., * p < 0.05 vs vehicle) was 5.18 ± 0.12 mPS, the “Whole Blood Viscosity, shear rate 128.5 sec.^-1” value ([6]; 37° C., * p < 0.05 vs vehicle) was 3.68 ± 0.08 mPS and the Hematocrit ([6]; microhematocrit centrifugation) was 46.0 ± 0.71%. For the same compound, the “difference in the IC100-values between individuals” value ([7]; arachidonic acid and collagen, considered to be due to individual difference) was “About 300 folds”, the “inhibitory activity against both arachidonic acid- and collagen-induced platelet aggregation” value ([7]; comparison of the two aggregants) was “almost the same inhibitory activity” and the “inhibitory activity on arachidonic acid-induced platelet aggregation relative to aspirin” value [8] was “several times as high as aspirin”.
